Reference: article PMC7058083, “Structural basis of ligand binding modes at the human formyl peptide receptor 2” (Nature Communications, 2020)
Changes are numbered by the printed parent chain. Residues, ends and D or L forms follow the SMILES beside them. *: point of attachment. For = O=C*

Key:
[1] = biological target: T1, wild-type (WT) and mutant FPR2 (Homo sapiens, UniProt P25090, F5A); experiment: Saturation binding of WK(FITC)YMVm, flow cytometry on HEK293F cells; conditions: FPR2 F5A
T1 construct: expressed in transfected cells; host or cells: HEK293F
T1 sequence (P25090 whole entry F5A): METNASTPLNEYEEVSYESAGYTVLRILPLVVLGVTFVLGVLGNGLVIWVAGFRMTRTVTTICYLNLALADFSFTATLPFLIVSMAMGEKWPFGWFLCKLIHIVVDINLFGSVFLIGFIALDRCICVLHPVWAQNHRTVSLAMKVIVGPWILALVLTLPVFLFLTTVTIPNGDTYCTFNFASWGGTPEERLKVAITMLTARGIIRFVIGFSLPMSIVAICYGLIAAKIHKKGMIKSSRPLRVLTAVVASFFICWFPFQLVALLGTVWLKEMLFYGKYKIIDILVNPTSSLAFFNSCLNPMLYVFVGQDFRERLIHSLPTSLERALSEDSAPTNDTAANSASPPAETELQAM
Procedure: (§1) Flag-tagged wild-type and mutant FPR2s were cloned into the pTT5 vector and expressed in HEK293F cells. The cells were harvested, and washed with Hanks’ Balanced Salt Solution (HBSS) buffer supplemented with 0.5% bovine serum albumin and 20 mM HEPES, pH 7.4. The cells were then resuspended in the same buffer to the final concentration of 1 × 10^6 cells per ml. The cell-surface expression was measured as mentioned above. […] Mean fluorescent intensity of each well was then read by a FCM (flow cytometry) reader (Millipore). […] For competitive binding of fMLFK, cells were plated in 96-well plates (100,000 cells per well), and incubated with WK(FITC)YMVm at 4 °C for 1 h. The following concentrations of WK(FITC)YMVm were used: 10 nM (wild type, L81^2.60F, E89G, and V105^3.32A), 30 nM (D281^7.32G), 40 nM (H102^3.29F, V160^4.60A, L268^ECL3A, N285^7.36A, and F292^7.43A), and 100 nM (L164^4.64A and T177A). Then increasing concentrations of fMLFK (100 nM–1 mM) were added, and incubated for another 1 h on ice. Mean fluorescent intensity values were measured by flow cytometry. Data were analyzed using Prism 7.0.

[2] = biological target: T2, wild-type (WT) and mutant FPR2 (Homo sapiens, UniProt P25090, L268A); experiment: as above; conditions: FPR2 L268A
T2 construct: expressed in transfected cells; host or cells: HEK293F
T2 sequence (P25090 1-351 L268A): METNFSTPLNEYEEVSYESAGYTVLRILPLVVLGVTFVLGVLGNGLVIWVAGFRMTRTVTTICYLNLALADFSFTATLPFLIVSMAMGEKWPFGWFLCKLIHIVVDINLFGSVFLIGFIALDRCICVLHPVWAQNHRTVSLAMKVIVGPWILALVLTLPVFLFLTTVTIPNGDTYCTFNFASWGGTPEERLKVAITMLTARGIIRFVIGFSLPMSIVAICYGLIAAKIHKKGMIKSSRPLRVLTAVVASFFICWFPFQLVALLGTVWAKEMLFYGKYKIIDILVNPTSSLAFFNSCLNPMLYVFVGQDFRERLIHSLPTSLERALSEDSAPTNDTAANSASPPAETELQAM
Procedure: as §1

[3] = biological target: T3, wild-type (WT) and mutant FPR2 (Homo sapiens, UniProt P25090); experiment: as above; conditions: FPR2 WT
T3 construct: expressed in transfected cells; host or cells: HEK293F
T3 sequence (P25090 1-351): T2 sequence (P25090 1-351 L268A) with A268L
Procedure: as §1

[4] = biological target: T4, wild-type (WT) and mutant FPR2 (Homo sapiens, UniProt P25090, L164A); experiment: as above; conditions: FPR2 L164A
T4 construct: expressed in transfected cells; host or cells: HEK293F
T4 sequence (P25090 1-351 L164A): T2 sequence (P25090 1-351 L268A) with L164A, A268L
Procedure: as §1

[5] = biological target: T5, wild-type (WT) and mutant FPR2 (Homo sapiens, UniProt P25090, L164W); experiment: as above; conditions: mutation L164W
T5 construct: expressed in transfected cells; host or cells: HEK293F
T5 sequence (P25090 whole entry L164W): as the sequence (P25090 whole entry F5A) above, with A5F, L164W counted along it
Procedure: as §1

[6] = biological target: T6, wild-type (WT) and mutant FPR2 (Homo sapiens, UniProt P25090, L81F); experiment: Competition binding of fMLFK with WK(FITC)YMVm, flow cytometry on HEK293F cells; conditions: FPR2 L81F; mean ± s.e.m., n=4; SEM
T6 construct: expressed in transfected cells; host or cells: HEK293F
T6 sequence (P25090 1-351 L81F): T2 sequence (P25090 1-351 L268A) with L81F, A268L
Procedure: as §1

[7] = biological target: T7, wild-type (WT) and mutant FPR2 (Homo sapiens, UniProt P25090, N285A); experiment: as above; conditions: FPR2 N285A; mean ± s.e.m., n=3; SEM
T7 construct: expressed in transfected cells; host or cells: HEK293F
T7 sequence (P25090 1-351 N285A): T2 sequence (P25090 1-351 L268A) with A268L, N285A
Procedure: as §1

[8] = biological target: T4, wild-type (WT) and mutant FPR2; experiment: as above; conditions: FPR2 L164A; mean ± s.e.m., n=3; SEM
Procedure: as §1

| Span (% of WT), saturation binding [1] | Kd ([1]; mean ± s.e.m., n=3, SEM) [nM] | Span (% of WT), saturation binding [2] | Kd ([2]; mean ± s.e.m., n=3, SEM) [nM] | Span (% of WT), saturation binding [3] | Kd ([3]; mean ± s.e.m., n=3, SEM) [nM] | Span (% of WT), saturation binding [4] | Kd ([4]; mean ± s.e.m., n=3, SEM) [nM] | WK(FITC)YMVm binding [5] | pKi, competition binding [6] | pKi, competition binding [7] | pKi, competition binding [8] | SMILES |
| --- | --- | --- | --- | --- | --- | --- | --- | --- | --- | --- | --- | --- |
| 62 ± 7 % of WT | 15.1 ± 7.4 | 76 ± 7 % of WT | 28.0 ± 10.0 | 100 % of WT | 24.0 ± 8.5 | 85 ± 13 % of WT | 92.2 ± 25.1 | severely impaired |  |  |  | CSCC[C@H](NC(=O)[C@H](Cc1ccc(O)cc1)NC(=O)[C@H](CCCCNC(=S)Nc1ccc2c(c1)C(=O)OC21c2ccc(O)cc2Oc2cc(O)ccc21)NC(=O)[C@@H](N)Cc1c[nH]c2ccccc12)C(=O)N[C@H](C(=O)N[C@H](CCSC)C(N)=O)C(C)C [WK(FITC)YMVm] |
|  |  |  |  |  |  |  |  |  | 3.97 ± 0.27 | 3.75 ± 0.16 | 4.16 ± 0.25 | CSCC[C@H](NC=O)C(=O)N[C@@H](CC(C)C)C(=O)N[C@@H](Cc1ccccc1)C(=O)N[C@@H](CCCCN)C(=O)O [fMLFK] (For-MLFK-OH) |
